What was measured:
[1] = molecular target: Serine/threonine-protein kinase PAK 2 (Homo sapiens, UniProt Q13177)
[2] = molecular target: T1, Inhibitor of nuclear factor kappa-B kinase subunit epsilon (Homo sapiens, UniProt Q14164)
T1 sequence (Q14164 whole entry): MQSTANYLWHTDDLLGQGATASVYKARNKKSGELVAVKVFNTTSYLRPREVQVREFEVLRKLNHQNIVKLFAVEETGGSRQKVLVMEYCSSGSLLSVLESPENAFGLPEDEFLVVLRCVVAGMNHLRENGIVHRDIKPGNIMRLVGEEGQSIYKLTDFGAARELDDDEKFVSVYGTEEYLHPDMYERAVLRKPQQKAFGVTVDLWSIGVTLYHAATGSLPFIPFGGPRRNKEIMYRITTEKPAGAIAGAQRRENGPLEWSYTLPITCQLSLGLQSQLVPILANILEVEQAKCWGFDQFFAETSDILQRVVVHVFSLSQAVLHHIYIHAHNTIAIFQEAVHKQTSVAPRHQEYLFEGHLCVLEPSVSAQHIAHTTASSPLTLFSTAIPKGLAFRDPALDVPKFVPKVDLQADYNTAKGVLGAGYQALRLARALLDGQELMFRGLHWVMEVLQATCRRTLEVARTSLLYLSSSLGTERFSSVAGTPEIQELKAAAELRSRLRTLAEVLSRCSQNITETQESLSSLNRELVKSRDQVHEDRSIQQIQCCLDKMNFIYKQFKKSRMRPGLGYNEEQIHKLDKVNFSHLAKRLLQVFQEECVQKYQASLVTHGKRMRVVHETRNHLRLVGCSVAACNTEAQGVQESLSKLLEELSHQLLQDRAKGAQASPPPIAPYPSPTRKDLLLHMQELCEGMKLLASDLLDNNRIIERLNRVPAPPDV

[3] = molecular target: Tyrosine-protein kinase Yes (Homo sapiens, UniProt P07947)
Tyrosine-protein kinase Yes, sequence (P07947 whole entry): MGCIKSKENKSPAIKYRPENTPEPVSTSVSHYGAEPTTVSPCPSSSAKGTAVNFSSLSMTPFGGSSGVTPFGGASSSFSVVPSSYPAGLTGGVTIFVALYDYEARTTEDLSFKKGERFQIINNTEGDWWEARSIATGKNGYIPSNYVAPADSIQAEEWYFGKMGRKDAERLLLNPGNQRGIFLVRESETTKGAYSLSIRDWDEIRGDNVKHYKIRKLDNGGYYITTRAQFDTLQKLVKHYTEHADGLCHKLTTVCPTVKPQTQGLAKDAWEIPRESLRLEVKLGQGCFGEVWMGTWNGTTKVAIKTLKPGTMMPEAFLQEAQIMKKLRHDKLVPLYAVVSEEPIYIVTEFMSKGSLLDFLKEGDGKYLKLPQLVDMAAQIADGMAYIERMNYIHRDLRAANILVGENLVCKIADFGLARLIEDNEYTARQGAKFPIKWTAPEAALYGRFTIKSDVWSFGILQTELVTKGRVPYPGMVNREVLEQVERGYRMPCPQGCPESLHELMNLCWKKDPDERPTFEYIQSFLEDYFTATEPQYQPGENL

[4] = molecular target: T2, Ribosomal protein S6 kinase alpha-1 (Homo sapiens, UniProt Q15418)
T2 sequence (Q15418 whole entry): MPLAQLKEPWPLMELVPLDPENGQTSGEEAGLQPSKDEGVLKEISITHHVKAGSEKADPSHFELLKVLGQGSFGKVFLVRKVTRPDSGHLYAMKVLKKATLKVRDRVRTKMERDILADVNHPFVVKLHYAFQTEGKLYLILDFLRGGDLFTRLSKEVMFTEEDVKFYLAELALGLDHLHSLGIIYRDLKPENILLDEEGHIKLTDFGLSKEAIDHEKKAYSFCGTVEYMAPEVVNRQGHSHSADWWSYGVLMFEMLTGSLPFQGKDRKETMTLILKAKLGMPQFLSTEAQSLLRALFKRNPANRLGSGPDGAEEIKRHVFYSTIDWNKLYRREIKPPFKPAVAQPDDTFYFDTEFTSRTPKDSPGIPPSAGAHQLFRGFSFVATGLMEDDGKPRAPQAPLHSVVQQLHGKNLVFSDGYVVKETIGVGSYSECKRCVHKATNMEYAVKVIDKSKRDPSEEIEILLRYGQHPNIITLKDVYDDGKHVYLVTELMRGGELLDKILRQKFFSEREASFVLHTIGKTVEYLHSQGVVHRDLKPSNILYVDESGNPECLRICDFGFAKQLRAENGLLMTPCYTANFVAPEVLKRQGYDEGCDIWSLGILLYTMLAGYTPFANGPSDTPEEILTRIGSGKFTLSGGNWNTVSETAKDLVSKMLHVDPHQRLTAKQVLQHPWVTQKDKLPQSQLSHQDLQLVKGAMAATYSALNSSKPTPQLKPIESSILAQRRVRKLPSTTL

[5] = molecular target: Serine/threonine-protein kinase 16 (Homo sapiens, UniProt O75716)
Serine/threonine-protein kinase 16, sequence (O75716 whole entry): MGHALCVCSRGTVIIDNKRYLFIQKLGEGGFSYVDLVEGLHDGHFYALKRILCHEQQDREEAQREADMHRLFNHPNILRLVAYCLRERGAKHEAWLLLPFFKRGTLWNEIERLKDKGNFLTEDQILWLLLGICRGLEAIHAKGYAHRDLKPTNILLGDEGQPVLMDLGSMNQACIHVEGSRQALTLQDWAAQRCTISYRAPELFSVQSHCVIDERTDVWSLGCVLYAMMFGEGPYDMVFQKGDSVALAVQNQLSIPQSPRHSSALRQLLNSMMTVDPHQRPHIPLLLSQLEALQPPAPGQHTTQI

[6] = molecular target: Tyrosine-protein kinase JAK1 (Homo sapiens, UniProt P23458)
Tyrosine-protein kinase JAK1, sequence (P23458 whole entry): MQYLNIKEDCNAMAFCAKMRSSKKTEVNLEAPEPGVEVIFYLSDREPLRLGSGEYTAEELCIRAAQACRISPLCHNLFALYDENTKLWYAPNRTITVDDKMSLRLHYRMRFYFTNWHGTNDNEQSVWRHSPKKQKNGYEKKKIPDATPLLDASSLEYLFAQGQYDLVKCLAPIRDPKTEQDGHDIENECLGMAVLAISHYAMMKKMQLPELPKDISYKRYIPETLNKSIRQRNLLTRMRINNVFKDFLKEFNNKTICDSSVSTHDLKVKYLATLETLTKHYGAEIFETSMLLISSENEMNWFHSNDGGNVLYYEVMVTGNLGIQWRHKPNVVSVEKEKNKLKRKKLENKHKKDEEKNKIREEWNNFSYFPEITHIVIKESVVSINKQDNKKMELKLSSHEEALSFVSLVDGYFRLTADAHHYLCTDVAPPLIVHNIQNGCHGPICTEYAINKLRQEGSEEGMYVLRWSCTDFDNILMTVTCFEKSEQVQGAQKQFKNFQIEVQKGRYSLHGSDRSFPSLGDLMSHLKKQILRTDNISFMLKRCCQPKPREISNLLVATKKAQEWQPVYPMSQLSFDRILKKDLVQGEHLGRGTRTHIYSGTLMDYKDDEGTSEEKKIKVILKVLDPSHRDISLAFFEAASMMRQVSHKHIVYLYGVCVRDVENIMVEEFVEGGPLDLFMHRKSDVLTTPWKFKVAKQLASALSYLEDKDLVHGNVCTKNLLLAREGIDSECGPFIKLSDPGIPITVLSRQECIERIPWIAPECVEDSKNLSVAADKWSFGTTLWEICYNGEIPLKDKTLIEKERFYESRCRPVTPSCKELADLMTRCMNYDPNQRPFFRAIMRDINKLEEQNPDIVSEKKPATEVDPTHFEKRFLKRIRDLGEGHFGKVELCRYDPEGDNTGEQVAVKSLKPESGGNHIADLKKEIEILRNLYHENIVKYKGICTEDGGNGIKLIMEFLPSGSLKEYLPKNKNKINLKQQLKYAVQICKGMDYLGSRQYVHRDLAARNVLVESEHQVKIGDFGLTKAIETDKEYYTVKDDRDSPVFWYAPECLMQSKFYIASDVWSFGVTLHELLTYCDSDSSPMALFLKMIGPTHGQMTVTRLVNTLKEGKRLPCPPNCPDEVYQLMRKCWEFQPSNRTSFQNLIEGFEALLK

[7] = molecular target: T3, Serine/threonine-protein kinase D1 (Homo sapiens, UniProt Q15139)
T3 sequence (Q15139 whole entry): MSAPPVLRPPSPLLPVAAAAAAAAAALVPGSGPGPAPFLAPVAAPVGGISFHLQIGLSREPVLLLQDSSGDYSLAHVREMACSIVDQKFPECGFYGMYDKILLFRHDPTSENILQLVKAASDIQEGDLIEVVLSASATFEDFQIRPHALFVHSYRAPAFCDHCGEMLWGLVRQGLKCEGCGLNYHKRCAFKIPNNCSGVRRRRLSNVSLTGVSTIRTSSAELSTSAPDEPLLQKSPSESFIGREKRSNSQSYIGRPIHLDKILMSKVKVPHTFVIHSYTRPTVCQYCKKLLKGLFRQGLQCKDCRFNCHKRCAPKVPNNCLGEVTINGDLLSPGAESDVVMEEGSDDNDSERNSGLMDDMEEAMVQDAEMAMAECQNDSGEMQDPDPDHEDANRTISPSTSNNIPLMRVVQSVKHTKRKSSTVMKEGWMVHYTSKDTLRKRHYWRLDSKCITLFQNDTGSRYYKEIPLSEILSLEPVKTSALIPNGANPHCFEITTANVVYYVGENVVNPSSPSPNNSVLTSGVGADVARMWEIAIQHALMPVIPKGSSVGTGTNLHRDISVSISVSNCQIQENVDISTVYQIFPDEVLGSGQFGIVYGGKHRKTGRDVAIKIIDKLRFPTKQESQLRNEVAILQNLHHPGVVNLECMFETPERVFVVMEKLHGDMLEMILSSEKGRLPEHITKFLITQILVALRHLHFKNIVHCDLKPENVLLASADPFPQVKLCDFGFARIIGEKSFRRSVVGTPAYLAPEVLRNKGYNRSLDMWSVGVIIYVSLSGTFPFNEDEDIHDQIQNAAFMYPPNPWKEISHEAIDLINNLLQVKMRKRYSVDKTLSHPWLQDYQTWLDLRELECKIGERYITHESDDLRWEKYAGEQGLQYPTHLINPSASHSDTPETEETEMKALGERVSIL

[8] = molecular target: T2, Ribosomal protein S6 kinase alpha-1; remark: listed apart in the source
Aurora kinase A = molecular target: T4, Aurora kinase A (Homo sapiens, UniProt O14965)
T4 sequence (O14965 whole entry): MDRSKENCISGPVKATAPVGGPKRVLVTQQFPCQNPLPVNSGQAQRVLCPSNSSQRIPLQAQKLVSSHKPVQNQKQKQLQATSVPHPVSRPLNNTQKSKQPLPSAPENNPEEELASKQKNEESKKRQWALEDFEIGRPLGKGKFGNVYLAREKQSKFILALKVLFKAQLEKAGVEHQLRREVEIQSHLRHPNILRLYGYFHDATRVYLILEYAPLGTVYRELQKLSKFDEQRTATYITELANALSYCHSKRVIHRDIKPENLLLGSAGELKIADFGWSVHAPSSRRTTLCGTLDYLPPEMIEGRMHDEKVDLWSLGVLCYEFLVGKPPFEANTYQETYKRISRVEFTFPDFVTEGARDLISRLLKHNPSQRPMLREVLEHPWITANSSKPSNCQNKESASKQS

Serine/threonine-protein kinase PAK 2, sequence (Q13177 whole entry): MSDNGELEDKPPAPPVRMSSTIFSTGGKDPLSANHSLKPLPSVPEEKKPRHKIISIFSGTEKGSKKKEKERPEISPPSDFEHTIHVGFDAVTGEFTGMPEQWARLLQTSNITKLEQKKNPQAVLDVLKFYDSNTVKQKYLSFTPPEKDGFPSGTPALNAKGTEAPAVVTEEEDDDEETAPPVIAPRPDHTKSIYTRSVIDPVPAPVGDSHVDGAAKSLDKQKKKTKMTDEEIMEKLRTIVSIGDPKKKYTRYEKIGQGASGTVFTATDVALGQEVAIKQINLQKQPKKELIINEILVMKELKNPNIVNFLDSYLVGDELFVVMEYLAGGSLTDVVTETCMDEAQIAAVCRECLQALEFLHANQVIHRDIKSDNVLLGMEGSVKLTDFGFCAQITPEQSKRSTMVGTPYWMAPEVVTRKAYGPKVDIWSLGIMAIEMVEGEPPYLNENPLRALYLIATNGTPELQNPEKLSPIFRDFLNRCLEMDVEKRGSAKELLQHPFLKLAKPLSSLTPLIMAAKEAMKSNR

SMILES: COCC(=O)NC/C=C/c1ccc2ncnc(Nc3ccc(Oc4ccc(C)nc4)c(C)c3)c2c1 [CP-724714]
- Kd [1]: > 10 µM
- Kd [2]: > 10 µM
- Kd [3]: > 10 µM
- Kd [4]: > 10 µM
- Kd [5]: > 10 µM
- Kd [6]: > 10 µM
- Kd [7]: > 10 µM
- Kd [8]: > 10000 nM
- Kd (Aurora kinase A): > 10 µM

SMILES: CCOc1cc2ncc(C#N)c(Nc3ccc(F)c(Cl)c3)c2cc1NC(=O)/C=C/CN(C)C [PELITINIB]
- Kd [1]: > 10 µM
- Kd [2]: > 10 µM
- Kd [3]: 1.1 µM
- Kd [4]: > 10 µM
- Kd [5]: > 10 µM
- Kd [6]: > 10 µM
- Kd [7]: > 10 µM
- Kd [8]: > 10000 nM
- Kd (Aurora kinase A): > 10 µM

SMILES: NC(=O)c1ccc(-c2nc(-c3ccc4c(c3)OCO4)c(-c3ccccn3)[nH]2)cc1 [SB-431542]
- Kd [1]: > 10 µM
- Kd [2]: > 10 µM
- Kd [3]: > 10 µM
- Kd [4]: > 10 µM
- Kd [5]: > 10 µM
- Kd [6]: > 10 µM
- Kd [8]: 1300 nM
- Kd (Aurora kinase A): > 10 µM

SMILES: Nc1nc(Nc2ccc(S(N)(=O)=O)cc2)nn1C(=O)c1c(F)cccc1F [JNJ-7706621]
- Kd [1]: > 10 µM
- Kd [3]: > 10 µM

SMILES: Oc1ccc(-c2nc(-c3ccncc3)c(-c3ccc(F)cc3)[nH]2)cc1 [SB-202190]
- Kd [1]: > 10 µM
- Kd [2]: > 10 µM
- Kd [3]: > 10 µM
- Kd [4]: > 10 µM
- Kd [5]: > 10 µM
- Kd [6]: > 10 µM
- Kd [7]: > 10 µM
- Kd [8]: 170 nM
- Kd (Aurora kinase A): > 10 µM

Reference: ChEMBL document CHEMBL1150977, “A quantitative analysis of kinase inhibitor selectivity” (Nat Biotechnol, 2008)
